According to patent US10112906B2, “1-aryl-3-alkylpyrazole insecticides” (E. I. DU PONT DE NEMOURS AND COMPANY, priority 2013, dated 2018):

What was measured:
Assay type in all cases: in vivo
[1] = tested on: diamondback moth (Plutella xylostella (L.)); experiment: Test A: control of diamondback moth, foliar spray on mustard plant; conditions: neonate larvae, assessed after 6 days
Experimental: (§1) Test compounds were formulated using a solution containing 10% acetone, 90% water and 300 ppm X-77® Spreader Lo-Foam Formula non-ionic surfactant containing alkylarylpolyoxyethylene, free fatty acids, glycols and isopropanol (Loveland Industries, Inc. Greeley, Colo., USA). The formulated compounds were applied in 1 mL of liquid through a SUJ2 atomizer nozzle with ⅛ JJ custom body (Spraying Systems Co. Wheaton, Ill., USA) positioned 1.27 cm (0.5 inches) above the top of each test unit. Test compounds were sprayed at the rates indicated, and each test was replicated three times.
For evaluating control of diamondback moth (Plutella xylostella (L.)) the test unit consisted of a small open container with a 12-14-day-old mustard plant inside. This was pre-infested with ˜50 neonate larvae that were dispensed into the test unit via corn cob grits using an inoculator. The larvae moved onto the test plant after being dispensed into the test unit.
Test compounds were formulated and sprayed at 250 and/or 50 ppm. After spraying of the formulated test compound, each test unit was allowed to dry for 1 hour and then a black, screened cap was placed on top. The test units were held for 6 days in a growth chamber at 25° C. and 70% relative humidity. Plant feeding damage was then visually assessed based on foliage consumed, and larvae were assessed for mortality.

[2] = tested on: fall armyworm (Spodoptera frugiperda (J. E. Smith)); experiment: Test B: control of fall armyworm, foliar spray on corn (maize) plant; conditions: 1-day-old larvae, assessed after 6 days
Experimental: as §1
For evaluating control of fall armyworm (Spodoptera frugiperda (J. E. Smith)) the test unit consisted of a small open container with a 4-5-day-old corn (maize) plant inside. This was pre-infested with 10-15 1-day-old larvae on a piece of insect diet.
Test compounds were formulated and sprayed at 250 and/or 50 ppm. After spraying of the formulated test compound, the test units were maintained in a growth chamber for 6 days at 25° C. and 70% relative humidity. Plant feeding damage was then visually assessed based on foliage consumed, and larvae were assessed for mortality.

[3] = tested on: potato leafhopper (Empoasca fabae (Harris)); experiment: Test D: control of potato leafhopper through contact and/or systemic means; conditions: 144 h, Soleil bean plant, adults, assessed after 6 days; for mortality at 250 ppm: sprayed at 250 ppm
Experimental: as §1
For evaluating control of potato leafhopper (Empoasca fabae (Harris)) through contact and/or systemic means, the test unit consisted of a small open container with a 5-6-day-old Soleil bean plant (primary leaves emerged) inside. White sand was added to the top of the soil, and one of the primary leaves was excised prior to application of the test compound.
Test compounds were formulated and sprayed at 250 and/or 50 ppm. After spraying of the formulated test compound, the test units were allowed to dry for 1 hour before they were post-infested with 5 potato leafhoppers (18-to-21-day-old adults). A black, screened cap was placed on the top of the test unit, and the test units were held for 6 days in a growth chamber at 20° C. and 70% relative humidity. Each test unit was then visually assessed for insect mortality.

[4] = tested on: corn planthopper (Peregrinus maidis (Ashmead)); experiment: Test C: control of corn planthopper through contact and/or systemic means; conditions: 144 h, corn (maize) plant, nymphs, assessed after 6 days
Experimental: as §1
For evaluating control of corn planthopper (Peregrinus maidis (Ashmead)) through contact and/or systemic means, the test unit consisted of a small open container with a 3-4-day-old corn (maize) plant inside. White sand was added to the top of the soil prior to application of the test compound.
Test compounds were formulated and sprayed at 250 and/or 50 ppm. After spraying of the formulated test compound, the test units were allowed to dry for 1 h before they were post-infested with ˜15-20 nymphs (18-to-21-day-old). A black, screened cap was placed on the top of each test unit, and the test units were held for 6 days in a growth chamber at 22-24° C. and 50-70% relative humidity. Each test unit was then visually assessed for insect mortality.

| Compound | control efficacy (40% or less feeding damage and/or 100% mortality) ([1]; sprayed at 50 ppm) | control efficacy (40% or less feeding damage and/or 100% mortality) ([1]; sprayed at 250 ppm) | control efficacy (40% or less feeding damage and/or 100% mortality) ([2]; sprayed at 50 ppm) | control efficacy (40% or less feeding damage and/or 100% mortality) ([2]; sprayed at 250 ppm) | other results |
| --- | --- | --- | --- | --- | --- |
| FC(F)(F)C1CCN(Cc2cn(-c3ccc(Cl)c(Cl)c3)nc2C2CCC2)CC1 [Compound 28] | very good to excellent levels of control efficacy | very good to excellent levels of control efficacy | very good to excellent levels of control efficacy | very good to excellent levels of control efficacy |  |
| N#CC1CCN(Cc2cn(-c3ccc(Cl)c(Cl)c3)nc2C#Cc2ccccc2)CC1 [Compound 32] | very good to excellent levels of control efficacy |  |  |  |  |
| C#Cc1nn(-c2ccc(Cl)c(Cl)c2)cc1CN1CCC(C#N)CC1 [Compound 31] | very good to excellent levels of control efficacy |  |  |  |  |
| Cc1nn(-c2ccc(Cl)c(Cl)c2)cc1CN1CCC(NC(=O)C2CC2)C1 (centres unmarked) [Compound 22] | very good to excellent levels of control efficacy | very good to excellent levels of control efficacy |  |  |  |
| CCc1nn(-c2ccc(Cl)c(Cl)c2)cc1CN1CCC(C#N)CC1 [Compound 14] | very good to excellent levels of control efficacy |  |  |  |  |
| N#CC1CCN(Cc2cn(-c3ccc(Cl)cc3)nc2C=CCl)CC1 [Compound 9] |  |  | very good to excellent levels of control efficacy | very good to excellent levels of control efficacy |  |
| N#CC1CCN(Cc2cn(-c3ccc(Cl)c(Cl)c3)nc2Cc2ccccc2F)CC1 [Compound 1] | very good to excellent levels of control efficacy |  |  |  |  |
| C=Cc1nn(-c2ccc(Cl)c(Cl)c2)cc1CN1CCC(C#N)CC1 [Compound 15] | very good to excellent levels of control efficacy |  |  |  |  |
| Cc1nn(-c2ccc(Cl)c(Cl)c2)cc1CN1CCC(C#N)CC1 [Compound 21] | very good to excellent levels of control efficacy | very good to excellent levels of control efficacy |  |  |  |
| C[Si](C)(C)C#Cc1nn(-c2ccc(Cl)c(Cl)c2)cc1CN1CCC(C#N)CC1 [Compound 29] |  |  | very good to excellent levels of control efficacy |  |  |
| FC(F)(F)C1CCN(Cc2cn(-c3cc(Cl)ccn3)nc2C2CCCC2)CC1 [Compound 37] | very good to excellent levels of control efficacy | very good to excellent levels of control efficacy | very good to excellent levels of control efficacy | very good to excellent levels of control efficacy |  |
| N#CC1CCN(Cc2cn(-c3cc(C(F)(F)F)ccn3)nc2C2CC2)CC1 [Compound 35] | very good to excellent levels of control efficacy | very good to excellent levels of control efficacy | very good to excellent levels of control efficacy | very good to excellent levels of control efficacy |  |
| N#CC1CCN(Cc2cn(-c3ccc(Cl)c(Cl)c3)nc2C2CC2)CC1 [Compound 12] | very good to excellent levels of control efficacy |  |  |  |  |
| N#CC1CCN(Cc2cn(-c3cc(C(F)(F)F)ccn3)nc2C2CCC2)CC1 [Compound 46, 1-[[3-cyclobutyl-1-[4-(trifluoromethyl)-2-pyridinyl]-1H-pyrazol-4-yl]methyl]-4-piperidinecarbonitrile] | very good to excellent levels of control efficacy | very good to excellent levels of control efficacy | very good to excellent levels of control efficacy | very good to excellent levels of control efficacy | mortality at 250 ppm [3]: ≥ 80% |
| CC(C)c1nn(-c2cc(C(F)(F)F)ccn2)cc1CN1CCC(C(F)(F)F)CC1 [Compound 54, 2-[3-(1-methylethyl)-4-[[4-(trifluoromethyl)-1-piperidinyl]methyl]-1H-pyrazol-1-yl]-4-(trifluoromethyl)pyridine] |  |  |  |  | mortality at 50 ppm ([3]; sprayed at 50 ppm): ≥ 80%; mortality at 250 ppm [3]: ≥ 80%; mortality at 50 ppm ([4]; sprayed at 50 ppm): ≥ 80%; mortality at 250 ppm ([4]; sprayed at 250 ppm): ≥ 80% |
| O=C(NC1CCN(Cc2cn(-c3ccc(Cl)c(Cl)c3)nc2C2CCCCC2)C1)C1CC1 (centres unmarked) [Compound 20] |  | very good to excellent levels of control efficacy |  | very good to excellent levels of control efficacy |  |
| CC(=O)N[C@H]1CCN(Cc2cn(-c3ccc(Cl)c(Cl)c3)nc2C2CC2)C1 [Compound 13] | very good to excellent levels of control efficacy |  |  |  |  |
| N#CC1CCN(Cc2cn(-c3ccc(Cl)c(Cl)c3)nc2Cc2ccc(F)cc2)CC1 [Compound 2] | very good to excellent levels of control efficacy |  |  |  |  |
| 2-[3-cyclohexyl-4-[[4-(trifluoromethyl)-1-piperidinyl]methyl]-1H-pyrazol-1-yl]-4-(trifluoromethyl)pyridine [Compound 23] | very good to excellent levels of control efficacy | very good to excellent levels of control efficacy | very good to excellent levels of control efficacy | very good to excellent levels of control efficacy |  |
| N#CC1CCN(Cc2cn(-c3ccc(Cl)c(Cl)c3)nc2C2CCCCC2)CC1 [Compound 19] |  |  | very good to excellent levels of control efficacy | very good to excellent levels of control efficacy |  |
| FC(F)(F)C1CCN(Cc2cn(-c3ccc(Cl)cn3)nc2C2CCCC2)CC1 [Compound 36] | very good to excellent levels of control efficacy | very good to excellent levels of control efficacy | very good to excellent levels of control efficacy | very good to excellent levels of control efficacy |  |
| N#CC1CCN(Cc2cn(-c3cc(Cl)ccn3)nc2C2CCCC2)CC1 [Compound 38, 1-[[1-(4-chloro-2-pyridinyl)-3-cyclopentyl-1H-pyrazol-4-yl]methyl]-4-piperidinecarbonitrile] | very good to excellent levels of control efficacy | very good to excellent levels of control efficacy | very good to excellent levels of control efficacy | very good to excellent levels of control efficacy | mortality at 250 ppm [3]: ≥ 80% |
